Results reported in US6960614B2, “Oxygenated esters of 4-lodo phenylamino benzhydroxamic acids” (Warner-Lambert Company, priority 2000, dated 2005).

Key:
MEK = test: Cellular Assay for Measuring MEK Inhibition (inhibition of ERK phosphorylation in C26 cells, Western blot); assay type: cell-based, murine; settings: inhibition of ERK phosphorylation in murine colon 26 (C26) carcinoma cells; determined graphically from dose response curve
In short: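 Exponentially growing murine colon 26 (C26) carcinoma cells treated with varying compound concentrations at 37° C, then lysed. Western blot with antibody to dually phosphorylated ERK1/ERK2; blots stripped and re-probed for total ERK1/ERK2.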

[1] = system: carrageenan thermal hyperalgesia response; test: Thermal hyperalgesia from intraplantar carrageenan in rats (Paw Withdrawal Latency); assay type: in vivo; settings: rat; for % Inhibition (1 hr): DOSE (PO) 10, 1 hour after drug administration; for % Inhibition (2 hr): DOSE (PO) 10, 2 hours after drug administration; for % Inhibition (3 hr): DOSE (PO) 10, 3 hours after drug administration
Method: The analgesic activity of the compounds of the present invention was assessed by a test with rats. […] The rats were placed on a glass plate with illumination from a halogen lamp placed directly under the injected paw. The time (in seconds) from beginning illumination until the hindlimb was withdrawn from the glass was measured and scored as Paw Withdrawal Latency (PWL). Drug substances were given by oral gavage injection 21⁄2 hours after carrageenan injection to the footpad. PWL was measured prior to carrageenan injection, just prior to drug injection, and 1, 2 (and sometimes 3) hours after drug injection. Carrageenan (a polysaccharide extracted from seaweed) causes a sterile inflammation when injected under the skin. Injection into the rat footpad causes little or no spontaneous pain-related behavior but induces hyperalgesia (pain-related behavioral responses of greater intensity than expected) to peripheral thermal or mechanical stimuli. This hyperalgesia is maximal 2 to 3 hours after injection. Treatment of rats with various analgesic drugs reduces hyperalgesia measured in this way and is a conventional test for detection of analgesic activity in rats. […] Inhibition of the carrageenan thermal hyperalgesia response was determined by the difference between reduced PWL prior to drug and subsequent to drug treatment, and was expressed as percent inhibition of the response. […] Inhibition indicates and analgesic effect.

| IC50 (MEK) [nM] | melting point | SMILES | % Inhibition (1 hr) [1] [%] | % Inhibition (2 hr) [1] [%] | % Inhibition (3 hr) [1] [%] |
| --- | --- | --- | --- | --- | --- |
| 1 | 152 to 154 °C | O=C(NOCC(O)CO)c1cc(Cl)c(F)c(F)c1Nc1ccc(I)cc1Cl (centres unmarked) [Example 34] | 39.6 | 61.5 |  |
| 0.73 | 152 to 155 °C | O=C(NOCC(O)CO)c1cc(Cl)c(F)c(F)c1Nc1ccc(I)cc1F (centres unmarked) [Example 41, 5-Chloro-N-(2,3-dihydroxy-propoxy)-3,4-difluoro-2-(2-fluoro-4-iodo-phenylamino)-benzamide] | 26.7 | 61.0 |  |
| 1.2 | 157 to 158 °C | O=C(NOC[C@@H](O)CO)c1cc(Cl)c(F)c(F)c1Nc1ccc(I)cc1F [Example 54] | 49 | 52.9 | 29.6 |
| 4.5 | 52 °C | O=C(NOC[C@H](O)CO)c1ccc(F)c(F)c1Nc1ccc(Br)cc1F [Example 55, 2-(4-Bromo-2-fluoro-phenylamino)-N-((R)-2,3-dihydroxy-propoxy)-3,4-difluoro-benzamide] | 36.8 | 60 | 22 |
| 230 | 183 to 185 °C (dec.) | CNCCONC(=O)c1ccc(F)c(F)c1Nc1ccc(I)cc1C [Example 78, 3,4-Difluoro-2-(4-iodo-2-methyl-phenylamino)-N-(2-methylamino-ethoxy)-benzamide] |  |  |  |
| 41 | 122 to 124 °C | O=C(c1ccc(F)c(F)c1Nc1ccc(I)cc1F)N1CC(O)CO1 (centres unmarked) [Example 83, [3,4-Difluoro-2-(2-fluoro-4-iodo-phenylamino)-phenyl]-(4-hydroxy-isoxazolidin-2-yl)-methanone] |  |  |  |
| 54 | 113 to 115 °C | O=C(NOCC(O)CO)c1ccc(F)c(F)c1Nc1ccccc1F (centres unmarked) [Example 85, N-(2,3-Dihydroxy-propoxy)-3,4-difluoro-2-(2-fluoro-phenylamino)-benzamide] |  |  |  |

| SMILES | IC50 (MEK) [nM] | melting point | % Inhibition (1 hr) [1] [%] | % Inhibition (2 hr) [1] [%] | % Inhibition (3 hr) [1] [%] |
| --- | --- | --- | --- | --- | --- |
| CC(C)(O)C(O)CONC(=O)c1ccc(F)c(F)c1Nc1ccc(I)cc1F (centres unmarked) [Example 76, N-(2,3-Dihydroxy-3-methyl-butoxy)-3,4-difluoro-2-(2-fluoro-4-iodo-phenylamino)-benzamide] | 6 | 180 to 183 °C |  |  |  |
